Literature values, collected in patent US6676951B1, “Host-guest processes and formulations for delivering bio-affecting compounds” (priority 1999, dated 2004).

Conditions: C=O bond external to the ring

pKa of the C=O external to the ring structure: 4.5
SMILES: O=C1O[C@H]([C@@H](O)CO)C(O)=C1O [ascorbic acid, L-ascorbic acid]
